Experimental data as given in patent publication US12582681B2, “Fermented milk product for administration in canids such as dogs, and uses thereof” (priority 2019, dated 2026).
Converted amounts (≈) assume the structure as drawn. Read-outs that look alike come from different tables or passages of the source.

Columns and labels:
[1] = tested on: Lactobacillus reuteri CECT 9859; assay: Broth microdilution MIC (MRS and LSM medium); format: cell-based; conditions: for Category (LSM) / Category (MRS): against EFSA (2018) breakpoints; for Category (LSM): key: S, susceptible; R, resistant; for Category (MRS): key: S, susceptible; R, resistant
S. aureus ATCC25923 = assay: Broth microdilution MIC, control strain; format: cell-based; conditions: for Category: against CLSI values; for Category: key: S, susceptible; R, resistant
[2] = Limosilactobacillus reuteri, CECT9859, 24 h, MRS medium, anaerobic, 37° C., 24 h, read-out: MIC
[3] = Staphylococcus aureus, ATCC25923
[4] = Limosilactobacillus reuteri, CECT9859, 24 h, LSM medium, anaerobic, 37° C., 24 h, read-out: MIC
[5] = Staphylococcus aureus, ATCC25923, MH medium, control strain, read-out: MIC

| Compound | Category (LSM) ([1]; LSM medium) | MIC ([1]; Limosilactobacillus reuteri, CECT9859, 24 h) [µg/mL] | MIC [1, 2] [µg/mL] | Category (MRS) ([1]; MRS medium) | Category (S. aureus ATCC25923; MH medium) | MIC (S. aureus ATCC25923; [3]) [µg/mL] | MIC ([1]; LSM medium, anaerobic, 37° C., 24 h) [µg/mL] | MIC ([1]; MRS medium, anaerobic, 37° C., 24 h) [µg/mL] | MIC (S. aureus ATCC25923; MH medium, control strain) [µg/mL] | MIC [1, 4] [µg/mL] | MIC (S. aureus ATCC25923; [5]) [µg/mL] | Susceptibility of the strain ([1]; MRS and LSM) |
| --- | --- | --- | --- | --- | --- | --- | --- | --- | --- | --- | --- | --- |
| CC[C@H]1OC(=O)[C@H](C)[C@@H](O[C@H]2C[C@@](C)(OC)[C@@H](O)[C@H](C)O2)[C@H](C)[C@@H](O[C@@H]2O[C@H](C)C[C@H](N(C)C)[C@H]2O)[C@](C)(O)C[C@@H](C)C(=O)[C@H](C)[C@@H](O)[C@]1(C)O [Erythromycin] | S | 0.125 (≈ 0.17 µM) | 0.25 (≈ 0.341 µM) | S | S | 0.125 (≈ 0.17 µM) |  |  |  |  |  |  |
| Gentamicin | S |  |  | R | S |  | 2 | 16 | 0.125 |  |  |  |
| CN(C)[C@@H]1C(O)=C(C(N)=O)C(=O)[C@@]2(O)C(O)=C3C(=O)c4c(O)cccc4[C@@](C)(O)[C@H]3C[C@@H]12 [Tetracycline] | S |  | 4 (≈ 9 µM) | S | S |  |  |  |  | 8 (≈ 18 µM) | 1 (≈ 2.25 µM) |  |
| [H]/N=C(/N)N[C@H]1[C@H](O)[C@@H](O)[C@H](O[C@@H]2O[C@@H](C)[C@](O)(C=O)[C@H]2O[C@@H]2O[C@@H](CO)[C@H](O)[C@@H](O)[C@@H]2NC)[C@@H](N/C(N)=N\[H])[C@@H]1O [Streptomycin] | S |  | 128 (≈ 220 µM) | R |  |  |  |  |  | 16 (≈ 27.5 µM) | 2 (≈ 3.44 µM) |  |
| NC[C@H]1O[C@H](O[C@H]2[C@H](O)[C@@H](O[C@H]3O[C@H](CO)[C@@H](O)[C@H](N)[C@H]3O)[C@H](N)C[C@@H]2N)[C@H](O)[C@@H](O)[C@@H]1O [Kanamycin] | S |  | 512 (≈ 1060 µM) | R | S |  |  |  |  | 64 (≈ 132 µM) | 2 (≈ 4.13 µM) |  |
| CCC[C@@H]1C[C@@H](C(=O)N[C@@H]([C@H]2O[C@H](SC)[C@H](O)[C@@H](O)[C@H]2O)[C@H](C)Cl)N(C)C1 [Clindamycin] | S |  | 0.25 (≈ 0.588 µM) | S | S | 0.125 (≈ 0.294 µM) |  |  |  | 0.25 (≈ 0.588 µM) |  |  |
| CN[C@H](CC(C)C)C(=O)N[C@H]1C(=O)N[C@@H](CC(N)=O)C(=O)N[C@H]2C(=O)N[C@H]3C(=O)N[C@H](C(=O)N[C@H](C(=O)O)c4cc(O)cc(O)c4-c4cc3ccc4O)[C@H](O)c3ccc(c(Cl)c3)Oc3cc2cc(c3O[C@@H]2O[C@H](CO)[C@@H](O)[C@H](O)[C@H]2O[C@H]2C[C@](C)(N)[C@H](O)[C@H](C)O2)Oc2ccc(cc2Cl)[C@H]1O [Vancomycin] | R |  | > 512 | R | S | 1 (≈ 0.69 µM) |  |  |  | 512 (≈ 353 µM) |  | resistant |
| CC1(C)S[C@@H]2[C@H](NC(=O)[C@H](N)c3ccccc3)C(=O)N2[C@H]1C(=O)O [Ampicillin] | S |  | 0.25 (≈ 0.715 µM) | S | S |  |  |  |  | 0.25 (≈ 0.715 µM) | 0.125 (≈ 0.358 µM) |  |
| O=C(N[C@H](CO)[C@H](O)c1ccc([N+](=O)[O-])cc1)C(Cl)Cl [Chloramphenicol] | S |  | 4 (≈ 12.4 µM) | S | S |  |  |  |  | 4 (≈ 12.4 µM) | 4 (≈ 12.4 µM) |  |
